Measured values from article PMC3867539 (Angewandte Chemie (International ed. in English), 2013).

Experiments:
CYP71A12 = CYP71A12 (Arabidopsis thaliana, UniProt O49340); details: estimate only, not a measured constant; Cys as thiol donor
CYP71A13 = CYP71A13 (Arabidopsis thaliana, UniProt O49342); details: estimate only, not a measured constant; Cys as thiol donor
CYP71A13, sequence (O49342 whole entry): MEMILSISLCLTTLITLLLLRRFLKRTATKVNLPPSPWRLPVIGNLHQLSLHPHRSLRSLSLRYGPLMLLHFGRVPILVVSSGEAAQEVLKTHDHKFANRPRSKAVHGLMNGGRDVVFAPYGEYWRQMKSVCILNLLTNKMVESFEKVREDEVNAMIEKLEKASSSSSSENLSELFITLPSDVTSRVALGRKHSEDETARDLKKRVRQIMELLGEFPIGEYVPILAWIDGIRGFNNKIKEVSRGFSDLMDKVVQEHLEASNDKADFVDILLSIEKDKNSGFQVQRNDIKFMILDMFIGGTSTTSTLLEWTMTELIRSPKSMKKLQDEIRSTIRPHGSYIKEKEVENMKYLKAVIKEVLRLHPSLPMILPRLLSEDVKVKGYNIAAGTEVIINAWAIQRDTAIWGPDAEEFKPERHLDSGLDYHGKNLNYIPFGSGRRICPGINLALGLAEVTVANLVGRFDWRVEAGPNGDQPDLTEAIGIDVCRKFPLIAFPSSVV

CYP71A12, sequence (O49340 whole entry): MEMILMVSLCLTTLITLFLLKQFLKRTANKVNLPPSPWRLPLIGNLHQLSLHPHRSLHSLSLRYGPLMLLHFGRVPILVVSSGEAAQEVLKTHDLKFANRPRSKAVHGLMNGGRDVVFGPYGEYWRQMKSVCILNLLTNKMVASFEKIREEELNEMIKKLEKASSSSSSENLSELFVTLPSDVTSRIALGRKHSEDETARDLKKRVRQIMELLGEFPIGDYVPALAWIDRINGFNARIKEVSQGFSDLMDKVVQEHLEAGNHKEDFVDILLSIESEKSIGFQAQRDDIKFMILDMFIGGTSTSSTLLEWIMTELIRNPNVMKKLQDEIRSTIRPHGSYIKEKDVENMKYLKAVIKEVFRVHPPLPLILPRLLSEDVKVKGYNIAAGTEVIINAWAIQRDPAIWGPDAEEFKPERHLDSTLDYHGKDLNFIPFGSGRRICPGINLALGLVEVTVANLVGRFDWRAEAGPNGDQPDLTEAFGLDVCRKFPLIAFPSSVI

N#CCc1c[nH]c2ccccc12 [IAN]
Km (CYP71A12): > 100 µM | Km (CYP71A13): > 100 µM
